In assay [1] the test system is HT-1080.hFAP. Nature of the assay: FACS analysis on HT-1080 wild type and HT-1080.hFAP. In kind it is cell-based. Conditions: 10 nM. The protocol:
(§1) SK-RC-52.hFAP, SK-RC-52.wt, HT-1080.wt and HT-1080.hFAP were detached from culture plates using Accutase, counted and suspended to a final concentration of 1.5×10^6 cells/mL in a 1% v/v solution of FCS in PBS pH 7.4. […] Cells were washed once with 200 μL 1% v/v solution of FCS in PBS pH 7.4 (200 μL), spun down, resuspended in a 1% v/v solution of FCS in PBS pH 7.4 (300 μL) and analyzed on a CytoFLEX cytometer (Beckman Coulter). The raw data were processed with the FlowJo 10.4 software.
(Flow cytometry measures light scatter and fluorescence of single cells or particles in a stream.)

The subject of assay [2] is SK-RC-52.hFAP. Nature of the assay: Confocal microscopy on SK-RC-52.hFAP. The class given is cell-based. Conditions: t=0 and 1 h. Here is the method:
SK-RC-52.hFAP and SK-RC-52 cells were seeded into 4-well cover slip chamber plates at a density of 10^4 cells per well in RPMI medium (1 mL) supplemented with 10% FCS, AA and HEPES (10 mM) and allowed to grow for 24 hours under standard culture conditions. Hoechst 33342 nuclear dye was used to stain nuclear structures.
(§2) The culture medium was replaced with fresh medium containing conjugate 15 (100 nM). Randomly selected colonies imaged on a SP8 confocal microscope equipped with an AOBS device (Leica Microsystems).

Assay [3] has as its system HT-1080.hFAP. Nature of the assay: Confocal microscopy on HT-1080.hFAP. In kind it is cell-based. Conditions: t=0 and 1 h. Here is the method:
HT-1080.hFAP and HT-1080 cells were seeded into 4-well cover slip chamber plates at a density of 10^4 cells per well in DMEM medium (1 mL) supplemented with 10% FCS, AA and HEPES (10 mM) and allowed to grow for 24 hours under standard culture conditions. Hoechst 33342 nuclear dye was used to stain nuclear structures.
as §2

In assay [4] the test system is SK-RC-52.hFAP. The assay is described as follows: FACS analysis on SK-RC-52 wild type and SK-RC-52.hFAP. In kind it is cell-based. Conditions: 10 nM. The protocol: as §1
In the next assay the target is T1, murine FAP (Mus musculus, UniProt P97321).
T1 sequence (P97321 1-761): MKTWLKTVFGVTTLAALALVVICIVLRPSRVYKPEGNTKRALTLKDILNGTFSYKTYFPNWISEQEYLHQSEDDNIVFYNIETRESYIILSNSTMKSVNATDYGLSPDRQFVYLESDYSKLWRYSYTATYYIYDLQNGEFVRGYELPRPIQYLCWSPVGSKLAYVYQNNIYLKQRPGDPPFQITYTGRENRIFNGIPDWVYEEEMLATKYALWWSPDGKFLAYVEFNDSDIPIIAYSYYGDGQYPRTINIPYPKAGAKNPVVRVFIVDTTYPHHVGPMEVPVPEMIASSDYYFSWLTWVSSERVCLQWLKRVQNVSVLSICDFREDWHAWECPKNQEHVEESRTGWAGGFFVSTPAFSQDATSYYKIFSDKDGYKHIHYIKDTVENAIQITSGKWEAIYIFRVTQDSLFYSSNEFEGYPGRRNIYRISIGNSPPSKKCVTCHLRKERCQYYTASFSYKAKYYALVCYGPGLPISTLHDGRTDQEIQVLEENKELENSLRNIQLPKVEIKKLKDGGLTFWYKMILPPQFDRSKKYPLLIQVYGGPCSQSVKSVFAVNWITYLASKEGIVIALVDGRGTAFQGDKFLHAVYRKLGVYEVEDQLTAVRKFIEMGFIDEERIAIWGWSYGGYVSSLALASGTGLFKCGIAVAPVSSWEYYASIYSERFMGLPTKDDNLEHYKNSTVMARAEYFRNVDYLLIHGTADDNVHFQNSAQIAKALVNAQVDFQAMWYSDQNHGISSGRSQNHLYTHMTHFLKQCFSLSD
Nature of the assay: Affinity measurement to murine FAP by fluorescence polarization. The class given is binding. Conditions: binder 10 nM, read-out: KD to mFAP. The protocol: (§3) Fluorescence polarization experiments were performed in 384-well plates (non-binding, ps, f-bottom, black, high volume, 30 μL final volume). Stock solutions of human FAP (4 μM) and murine FAP (5 μM) were serially diluted with buffer (50 mM Tris, 100 mM NaCl, 1 mM EDTA, pH=7.4), while the final concentration of the binders was kept constant at 10 nM. The fluorescence anisotropy was measured on a TECAN microtiter plate reader. Experiments were performed in triplicate and the mean anisotropy values fitted using Prism 7.
(In general: In fluorescence polarisation assays a small probe gives low polarisation when free and higher when bound to something large.)

Another assay deals with T2, hFAP (Homo sapiens, UniProt Q12884).
T2 construct: made in house; host or cells: CHO cells, transient gene expression, purified from supernatant
T2 sequence (Q12884 with tags, fused parts or gaps): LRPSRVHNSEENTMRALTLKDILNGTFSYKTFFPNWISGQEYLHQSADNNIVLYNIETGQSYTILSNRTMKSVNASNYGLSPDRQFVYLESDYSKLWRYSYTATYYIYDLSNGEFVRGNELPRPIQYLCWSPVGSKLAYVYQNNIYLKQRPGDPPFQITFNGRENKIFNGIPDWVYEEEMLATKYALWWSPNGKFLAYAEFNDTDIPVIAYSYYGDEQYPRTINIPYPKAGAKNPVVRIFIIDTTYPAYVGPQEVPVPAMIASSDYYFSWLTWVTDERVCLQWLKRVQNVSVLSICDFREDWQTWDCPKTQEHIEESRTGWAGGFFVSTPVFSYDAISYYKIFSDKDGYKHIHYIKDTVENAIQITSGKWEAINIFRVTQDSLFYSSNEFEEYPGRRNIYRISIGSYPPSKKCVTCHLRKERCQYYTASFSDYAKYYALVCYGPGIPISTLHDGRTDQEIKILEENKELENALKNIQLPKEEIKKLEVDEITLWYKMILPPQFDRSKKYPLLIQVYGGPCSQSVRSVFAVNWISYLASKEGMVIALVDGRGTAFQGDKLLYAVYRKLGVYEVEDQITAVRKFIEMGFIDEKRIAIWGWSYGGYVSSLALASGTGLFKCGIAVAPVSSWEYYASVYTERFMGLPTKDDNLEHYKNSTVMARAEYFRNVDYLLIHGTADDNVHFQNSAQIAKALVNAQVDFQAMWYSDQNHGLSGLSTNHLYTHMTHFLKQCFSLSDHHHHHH
The assay is described as follows: Affinity measurement to human FAP by fluorescence polarization. The class given is binding. Conditions: binder 10 nM, read-out: KD to hFAP. Here is the method:
Fluorescence polarization measurements were performed in 384-well plates (non-binding, ps, f-bottom, black, high volume, 30 μL final volume). A stock solution of human FAP (4 μM) was serially diluted with buffer (50 mM Tris, 100 mM NaCl, 1 mM EDTA, pH=7.4), while the final concentration of the binders was kept constant at 10 nM. The measurements were carried out after incubating for 30 min at 37° C. in the dark by fluorescent polarization (FIG. 4).
as §3

This note sets out measurements from US20230147962A1, “FIBROBLAST ACTIVATION PROTEIN LIGANDS FOR TARGETED DELIVERY APPLICATIONS” (PHILOCHEM AG, priority 2020, published 2023).

*1 amine or outer side, *2 acyl side, *3 side chain or, on linkers, in order; H or OH if unused. Where a SMILES comes first, the peptide text is derived from it. The star is where a group is joined. Fluorescein(5-Mal) = O=C1OC2(c3ccc(O)cc3Oc3cc(O)ccc32)c2ccc(N3C(=O)CC(*)C3=O)cc21; X1 = N#C[C@@H]1CC(F)(F)CN1C(=O)CNC(=O)c1ccnc2c(N*)cccc12; Suc = O=C(CCC(=O)[*:2])[*:1]

Regarding `N#C[C@@H]1CC(F)(F)CN1C(=O)CNC(=O)c1ccnc2c(NC(=O)CCC(=O)N[C@@H](CC(=O)O)C(=O)N[C@@H](CCCCN)C(=O)N[C@@H](CC(=O)O)C(=O)N[C@@H](CSC3CC(=O)N(c4ccc5c(c4)C(=O)OC54c5ccc(O)cc5Oc5cc(O)ccc54)C3=O)C(=O)O)cccc12` (stereo partly drawn) [Conjugate 15, (2R,5S,8S,11S)-8-(4-aminobutyl)-5,11-bis(carboxymethyl)-16-((4-((2-((S)-2-cyano-4,4-difluoropyrrolidin-1-yl)-2-oxoethyl)carbamoyl)quinolin-8-yl)amino)-2-(((1-(3′,6′-dihydroxy-3-oxo-3H-spiro[isobenzofuran-1,9′-xanthen]-5-yl)-2,5-dioxopyrrolidin-3-yl)thio)methyl)-4,7,10,13,16-pentaoxo-3,6,9,12-tetraazahexadecanoic acid] ({X1-Suc}-DKDC(Fluorescein(5-Mal))-OH), the “cellular binding, HT-1080 Wild type vs HT-1080.hFAP” value with HT-1080.hFAP [1] was “FAP-specific cellular binding”. Also, the “accumulation on SK-RC-52.hFAP cells” value in the assay with SK-RC-52.hFAP [2] was “accumulation of conjugate 15 on the cell membrane”. Moreover, the “accumulation on HT-1080.hFAP cells” value in the assay on HT-1080.hFAP [3] is “accumulation of conjugate 15 on the cell membrane and inside the cytosol”. In the assay on SK-RC-52.hFAP [4], the “cellular binding, SK-RC-52 Wild type vs SK-RC-52.hFAP” value is reported as “FAP-specific cellular binding”. Besides, the Kd at murine FAP is 11.6 nM; at hFAP it was 0.68 nM.

The term Kd denotes a measure of binding affinity in units of concentration.
